The source made the active and inactive calls. The rule behind the calls is not given here.
Tests used:
SW-620 [1] = assay: Antitumor activity against human SW620 cells xenografted in Balb/c nude mouse model assessed as decrease in cleaved caspase 3 level at 25 mg/kg/day measured after 14 days by Western blot analysis; type: functional, organism-based; settings: time 14.0 day
SW-620 [2] = assay: Antitumor activity against human SW620 cells xenografted in Balb/c nude mouse model assessed as increase in cleaved-caspase 3 level at 25 mg/kg/day measured after 14 days by Western blot analysis; type: functional, organism-based; settings: time 14.0 day
SW-620 [3] = assay: Antitumor activity against human SW620 cells xenografted in Balb/c nude mouse model assessed as decrease in ATM protein level at 25 mg/kg/day measured after 14 days by Western blot analysis; type: functional, organism-based; settings: time 14.0 day
SW-620 [4] = assay: Antitumor activity against human SW620 cells xenografted in Balb/c nude mouse model assessed as necrosis at 25 mg/kg/day measured after 14 days by H and E staining based analysis; type: functional, organism-based; settings: time 14.0 day
SW-620 [5] = assay: Antitumor activity against human SW620 cells xenografted in Balb/c nude mouse model assessed as increase in gamma-H2AX level at 25 mg/kg/day measured after 14 days by Western blot analysis; type: functional, organism-based; settings: time 14.0 day
SW-620 [6] = assay: Antitumor activity against human SW620 cells xenografted in Balb/c nude mouse model assessed as reduction in tumor load at 25 mg/kg/day administered for 14 days by vernier caliper based analysis; type: functional, organism-based; settings: time 14.0 day
SW-620 [7] = assay: Antitumor activity against human SW620 cells xenografted in Balb/c nude mouse model assessed as increase in gamma-H2AX at 25 mg/kg/day measured after 14 days by Western blot analysis; type: functional, organism-based; settings: time 14.0 day
SW-620 [8] = assay: Antitumor activity against human SW620 cells xenografted in Balb/c nude mouse model assessed as decrease in pro-caspase 3 level at 25 mg/kg/day measured after 14 days by Western blot analysis; type: functional, organism-based; settings: time 14.0 day
SW-620 [9] = assay: Antitumor activity against human SW620 cells xenografted in Balb/c nude mouse model assessed as decrease in BCL2 protein level at 25 mg/kg/day measured after 14 days by Western blot analysis; type: functional, organism-based; settings: time 14.0 day
SW-620 [10] = assay: Antitumor activity against human SW620 cells xenografted in Balb/c nude mouse model assessed as fibrosis at 25 mg/kg/day measured after 14 days by H and E staining based analysis; type: functional, organism-based; settings: time 14.0 day
SW-620 [11] = assay: Antitumor activity against human SW620 cells xenografted in Balb/c nude mouse model assessed as inflammatory cell infiltration at 25 mg/kg/day measured after 14 days by H and E staining based analysis; type: functional, organism-based; settings: time 14.0 day
K562 = assay: Cytotoxicity against human K562 cells assessed as reduction in cell viability incubated for 48 hrs by MTT assay; settings: K562, 48 h
SW-620 [12] = assay: Cytotoxicity against human SW620 cells assessed as reduction in cell viability incubated for 48 hrs by MTT assay; settings: SW-620, 48 h
SW480 = assay: Cytotoxicity against human SW480 cells assessed as reduction in cell viability incubated for 48 hrs by MTT assay; settings: SW480, 48 h
A2780 = assay: Cytotoxicity against human A2780 cells assessed as reduction in cell viability incubated for 48 hrs by MTT assay; settings: A2780, 48 h
[13] = Cytotoxicity against human HIEC-6 cells assessed as reduction in cell viability incubated for 48 hrs by MTT assay; type: toxicity, cell-based; settings: HIEC-6 cells
COLO 205 = assay: Cytotoxicity against human COLO 205 cells assessed as reduction in cell viability incubated for 48 hrs by MTT assay; settings: COLO 205, 48 h
RKO = assay: Cytotoxicity against human RKO cells assessed as reduction in cell viability incubated for 48 hrs by MTT assay
SW13 = assay: Cytotoxicity against human SW13 cells assessed as reduction in cell viability incubated for 48 hrs by MTT assay; settings: SW13, 48 h
LoVo = assay: Cytotoxicity against human LoVo cells assessed as reduction in cell viability incubated for 48 hrs by MTT assay
HCT-116 = assay: Cytotoxicity against human HCT-116 cells assessed as reduction in cell viability incubated for 48 hrs by MTT assay; settings: HCT-116, 48 h
NCI-H358 = assay: Cytotoxicity against human NCI-H358 cells assessed as reduction in cell viability incubated for 48 hrs by MTT assay; settings: NCI-H358, 48 h
SW-620 [14] = assay: Downregulation of PROX1 level in human SW620 cells at 1.25 to 10 uM measured after 12 hrs by immunoblot analysis; type: functional, cell-based; settings: dose 1.25-10 µM
SW-620 [15] = assay: Downregulation of KDM4B level in human SW620 cells at 1.25 to 10 uM measured after 12 hrs by immunoblot analysis; type: functional, cell-based; settings: dose 1.25-10 µM
SW-620 [16] = assay: Effect on ATM mRNA level in human SW620 cells at 2.5 to 10 uM incubated for 12 hr by RT-PCR analysis; type: functional, cell-based; settings: dose 2.5-10 µM

Row | SMILES | IC50 (K562) | IC50 (SW-620 [12]) | IC50 (SW480) | IC50 (A2780) | IC50 at 48 h [13] | IC50 (COLO 205) | IC50 (RKO) | IC50 (SW13) | IC50 (LoVo) | IC50 (HCT-116) | IC50 (NCI-H358) | other results
1 | C[C@@H]1COCCN1c1cc(C2([S@](C)(=N)=O)CC2)nc(-c2cc[nH]c3nccc2-3)n1 |  |  |  |  |  |  |  |  |  |  |  | Activity (SW-620 [1]): Active; Activity (SW-620 [2]): Active; Activity (SW-620 [3]): Active; Activity (SW-620 [4]): Active; Activity (SW-620 [5]): Active; Activity (SW-620 [6]): Active; Activity (SW-620 [7]): Active; Activity (SW-620 [8]): Active; Activity (SW-620 [9]): Active; Activity (SW-620 [10]): Active; Activity (SW-620 [11]): Active
2 | O=C1CCC(N2Cc3c(NCCCCCCn4cc(CCCN5C(=O)/C(=C6/C(=O)Nc7ccccc76)c6ccccc65)nn4)cccc3C2=O)C(=O)N1 (stereo not drawn) | > 20 µM | 7.76 µM | > 20 µM | 7.47 µM | > 20 µM | > 20 µM | 6.79 µM | > 20 µM | 15.1 µM | > 20 µM | > 20 µM | 
3 | CN1C(=O)/C(=C2/C(=O)Nc3ccccc32)c2ccccc21 [MEISOINDIGO] | 8.17 µM | 9.14 µM | 2.8 µM | 6.57 µM | 12 µM | 7.55 µM | 11.6 µM | 12.9 µM | 12.7 µM | 5.36 µM | > 20 µM | Activity (SW-620 [14]): Active; Activity (SW-620 [15]): Active; Activity (SW-620 [16]): inactive
4 | CC(C)n1c(=O)n(C)c2cnc3cc(F)c(-c4ccc(OCCCN5CCCCC5)nc4)cc3c21 [AZD-1390] | > 20 µM | > 20 µM | > 20 µM | > 20 µM | > 20 µM | > 20 µM | > 20 µM | > 20 µM | > 20 µM | > 20 µM | > 20 µM | 
5 | O=c1[nH]cc(F)c(=O)[nH]1 [FLUOROURACIL] | > 20 µM | 13.8 µM | 12.6 µM | 12.9 µM | 18.6 µM | 4.54 µM | 3.43 µM | > 20 µM | 9.89 µM |  | > 20 µM | 
6 | Cc1ncsc1-c1ccc(CNC(=O)[C@@H]2C[C@@H](O)CN2C(=O)[C@@H](NC(=O)OC(C)(C)C)C(C)(C)C)cc1 | > 20 µM | > 20 µM | > 20 µM | > 20 µM | > 20 µM | > 20 µM | > 20 µM | > 20 µM | > 20 µM | > 20 µM | > 20 µM | 

— ChEMBL document CHEMBL5506015, “Discovery of a Meisoindigo-Derived PROTAC as the ATM Degrader: Revolutionizing Colorectal Cancer Therapy via Synthetic Lethality with ATR Inhibitors” (J Med Chem, 2024)
